Consider 1 compound from patent US20070158208A1, “Apparatus and methods for treating ballast water by using electrolysis of natural seawater” (Research Institute of Industrial Science & Technology, priority 2003, published 2007).

One test deals with Acartia spp.(Copepoda). Description: Influence density of NaOCl in electrolyzed water on marine ecosystem. It is filed as in vivo. As for the experimental part:
(§1) In the meantime, according to the present invention, marine microorganisms are effectively killed. Influence density for most of organisms in the seawater by electrolyzed water is shown on Table 1 below. As a result of performing the present invention, it has been checked by a natural eye that organisms causing red tide is completely eliminated within 1-2 minutes after spreading of the electrolyzed water. A density of Cochlodinium which has been a population of 7-8 thousand/ml in an actual relevant sea area has approached almost zero after four hours elapse, showing high relief efficiency. If the NaOCl component density required by the electrolyzed water is controlled, complete elimination of marine microorganisms is achieved.

Test [1] concerns Adult benthic fauna: Tapes philippinarum, Giant pacific oyster, Pachygrapsus crassipes. Described as above. It is filed as in vivo. How it is done: as §1
Test [2] relates to Adult seaweeds: Borphyra seriata, Ulva pertusa. The test is described as above. It is filed as in vivo. As for the experimental part: as §1
For test [3], the system named is Artemia larva(Kugenumaenis). Described as above. It is filed as in vivo. To be noted: Benthic fauna larva. As for the experimental part: as §1
In the next test the test system is Barnacle larva. The description is as above. It is filed as in vivo. To be noted: Benthic fauna larva. As for the experimental part:
as §1

For test [4], the system named is Fish: Bastard halibut fry, sebastes schlegeli fry. The description is as above. It is filed as in vivo. As for the experimental part: as §1
The test system of the next test is Oxyrrhis marina. The description is as above. The settings on record: Protista. It is filed as in vivo. As for the experimental part: as §1
The subject of a further test is Polykrikos kofodidii. Described as above. It is filed as in vivo. The settings on record: Protista. How it is done:
as §1

The test system of test [5] is Pseudodiaptomus spp.(Copepoda). The test is described as above. It is filed as in vivo. To be noted: Zooplankton. As for the experimental part: as §1
The test system of test [6] is Seaweeds spore: Borphyra seriata, Ulva pertusa, Brown seaweed. The test is described as above. It is filed as in vivo. As for the experimental part: as §1
The subject of the next test is Strombidinopsis sp. The test is described as above. It is filed as in vivo. To be noted: Protista. How it is done:
as §1

For test [7] the following is noted: NaOCl obtained during the electrolysis compared with HCl; cited from earlier work.

With `[Na+].[O-]Cl` [NaOCl], the Influence density is reported as 2.0 ppm in the test on Acartia spp.(Copepoda); 20 or more ppm in test [1]; 1.0-1.5 ppm in test [2]; 30-50 ppm in test [3]; 50 ppm in the test with Barnacle larva; 2-5 ppm in [4]. The Influence density is recorded as 0.3 ppm with Oxyrrhis marina; 0.75-1.0 ppm with Polykrikos kofodidii; 10-20 ppm in test [5]; 0.1-0.3 ppm in test [6]; 0.75-1.0 ppm in the test on Strombidinopsis sp. In addition, the “Insecticide and sterilizing effects relative to HCl” value in test [7] was “about 1.4 times”.
